Results published in ChEMBL document CHEMBL1201862, “PubChem BioAssay data set” (2004).
Where “and” joins values, the source holds several entries; their conditions need not be identical. Equal values may be shown once.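 All cell lines were grown in 96-well plates and treated with compound for 48 hours. Here, GI50 denotes the concentration required for 50% inhibition of growth.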 Calls of active or inactive are those of the source. No stated cut-off is given here; in the data, active = GI50 up to about 1.1 µM and inactive = higher.

What was measured:
Assay in all cases: NCI-60 cell line screen, 48 h
UACC-257 = system: UACC-257
M14 = system: M14
SK-MEL-2 = system: SK-MEL-2
HL-60 = system: HL-60
Hs-578T = system: Hs-578T
KM12 = system: KM12
CAKI-1 = system: CAKI-1
A549 = system: A549
IGROV-1 = system: IGROV-1
SK-OV-3 = system: SK-OV-3
NCI-H23 = system: NCI-H23
OVCAR-5 = system: OVCAR-5
SF-295 = system: SF-295
CCRF-CEM = system: CCRF-CEM
HOP-62 = system: HOP-62
SK-MEL-28 = system: SK-MEL-28
NCI-H522 = system: NCI-H522
RXF 393 = system: RXF 393
SF-268 = system: SF-268
SW-620 = system: SW-620

Row | Structure (SMILES) | GI50 (UACC-257) | GI50 (M14) | GI50 (SK-MEL-2) | GI50 (HL-60) | GI50 (Hs-578T) | GI50 (KM12) | GI50 (CAKI-1) | GI50 (A549) | GI50 (IGROV-1) | GI50 (SK-OV-3) | GI50 (NCI-H23) | GI50 (OVCAR-5) | GI50 (SF-295) | GI50 (CCRF-CEM) | GI50 (HOP-62) | GI50 (SK-MEL-28) | GI50 (NCI-H522) | GI50 (RXF 393) | GI50 (SF-268) | GI50 (SW-620)
1 | O=C1OC(c2ccccc2)=N/C1=C\c1ccccc1 | 41.4 µM (inactive) and 25.9 µM (inactive) | 26.9 µM (inactive) and 30.4 µM (inactive) | 17.8 µM (inactive) | 29.5 µM (inactive) and 18.7 µM (inactive) | 58.7 µM (inactive) and 36.7 µM (inactive) | 34.8 µM (inactive) and 26.6 µM (inactive) | > 100 µM (inactive) | > 100 µM (inactive) | 55.5 µM (inactive) and 37.6 µM (inactive) | > 100 µM (inactive) | > 100 µM (inactive) | > 100 µM (inactive) | 69 µM (inactive) and 68.2 µM (inactive) | 21 µM (inactive) and 24.6 µM (inactive) | 29.1 µM (inactive) and 25.8 µM (inactive) | > 100 µM (inactive) and 83.9 µM (inactive) | 42.9 µM (inactive) | – | – | –
2 | COc1ccc2c(c1)[n+]([O-])c(C(C)=O)c(C)[n+]2[O-] | > 100 µM (inactive) | > 100 µM (inactive) | > 100 µM (inactive) | > 100 µM (inactive) | – | > 100 µM (inactive) | > 100 µM (inactive) | > 100 µM (inactive) | > 100 µM (inactive) | > 100 µM (inactive) | > 100 µM (inactive) | > 100 µM (inactive) | > 100 µM (inactive) | > 10 µM (inactive) | > 100 µM (inactive) | > 100 µM (inactive) | > 100 µM (inactive) | > 100 µM (inactive) | > 100 µM (inactive) | > 100 µM (inactive)
3 | CC1(C)OC2OC(COC(=O)C(c3ccccc3)c3ccccc3)C3OC(C)(C)OC3C2O1 (stereo not given) | > 10 µM (inactive) | 93.1 µM (inactive) | 46.8 µM (inactive) | 4.21 µM (inactive) | – | 5.87 µM (inactive) | > 10 µM (inactive) | 26.1 µM (inactive) | > 10 µM (inactive) | > 10 µM (inactive) | 20.1 µM (inactive) | > 10 µM (inactive) | 10.7 µM (inactive) | 17.1 µM (inactive) | > 10 µM (inactive) | 43.5 µM (inactive) | 21.6 µM (inactive) | 12.3 µM (inactive) | 16.9 µM (inactive) | 6.87 µM (inactive)
4 | O=c1[nH]cnc2c(COCCCO)c[nH]c12 | > 100 µM (inactive) | > 100 µM (inactive) | > 100 µM (inactive) | > 100 µM (inactive) | – | > 100 µM (inactive) | > 100 µM (inactive) | > 100 µM (inactive) | > 100 µM (inactive) | > 100 µM (inactive) | > 100 µM (inactive) | 61.5 µM (inactive) | > 100 µM (inactive) | > 100 µM (inactive) | > 100 µM (inactive) | > 100 µM (inactive) | > 100 µM (inactive) | > 100 µM (inactive) | > 100 µM (inactive) | > 100 µM (inactive)
5 | c1ccc(/N=C(\N2CCCCC2)N(CCN2CCCCC2)c2ccccc2)cc1 | 1.82 µM (inactive) | 1.5 µM (inactive) | 1.76 µM (inactive) | 0.277 µM (active) | 944 nM (active) | – | 3.15 µM (inactive) | 2.11 µM (inactive) | 0.396 µM (active) | 1.65 µM (inactive) | 0.773 µM (active) | 1.82 µM (inactive) | 1.04 µM (active) | 1 µM (active) | 1.43 µM (inactive) | 1.99 µM (inactive) | 0.428 µM (active) | – | – | 1.8 µM (inactive)
6 | COc1ccc(Nc2nc(N)c(C(=O)c3c[nH]c4ccccc34)s2)cc1 | 7.85 µM (inactive) | 1.23 µM (inactive) | 3.98 µM (inactive) | 1.07 µM (active) | – | 0.689 µM (active) | 2.18 µM (inactive) | 1.41 µM (inactive) | 1.13 µM (inactive) | 4.51 µM (inactive) | 3.4 µM (inactive) | 3.13 µM (inactive) | 0.5 µM (active) | 2.16 µM (inactive) | 8.02 µM (inactive) | 14.9 µM (inactive) | 0.0302 µM (active) | 2.03 µM (inactive) | 6.84 µM (inactive) | 1.65 µM (inactive)
